{"source": "paper PMC2064394", "about": "(The Journal of Cell Biology, 2006)", "molecular_target": "T1, recombinant C. elegans kinesin-II (heterotrimeric kinesin-2) (Caenorhabditis elegans, UniProt Q19633+Q965T6)", "T1 sequence (Q19633 1-782)": "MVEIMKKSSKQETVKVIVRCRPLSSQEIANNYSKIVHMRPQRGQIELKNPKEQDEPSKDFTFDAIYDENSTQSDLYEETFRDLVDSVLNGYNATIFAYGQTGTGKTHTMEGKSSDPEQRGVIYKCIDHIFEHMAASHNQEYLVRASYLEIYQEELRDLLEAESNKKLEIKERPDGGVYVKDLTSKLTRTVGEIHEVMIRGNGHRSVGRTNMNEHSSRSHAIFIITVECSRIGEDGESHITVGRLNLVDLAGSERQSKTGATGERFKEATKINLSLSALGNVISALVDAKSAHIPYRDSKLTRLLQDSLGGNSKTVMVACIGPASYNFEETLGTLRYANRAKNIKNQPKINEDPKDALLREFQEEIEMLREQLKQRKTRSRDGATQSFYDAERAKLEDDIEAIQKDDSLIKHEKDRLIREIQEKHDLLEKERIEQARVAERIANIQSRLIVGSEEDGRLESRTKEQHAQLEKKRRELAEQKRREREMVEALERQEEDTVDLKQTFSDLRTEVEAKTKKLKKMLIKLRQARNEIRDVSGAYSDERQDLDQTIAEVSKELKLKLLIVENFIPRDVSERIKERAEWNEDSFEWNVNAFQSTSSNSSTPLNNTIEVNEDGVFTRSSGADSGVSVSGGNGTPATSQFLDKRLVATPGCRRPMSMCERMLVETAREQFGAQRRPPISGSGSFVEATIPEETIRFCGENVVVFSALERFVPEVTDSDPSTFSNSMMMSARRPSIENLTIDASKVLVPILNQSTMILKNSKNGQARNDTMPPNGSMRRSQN", "T1 sequence (Q965T6 1-646)": "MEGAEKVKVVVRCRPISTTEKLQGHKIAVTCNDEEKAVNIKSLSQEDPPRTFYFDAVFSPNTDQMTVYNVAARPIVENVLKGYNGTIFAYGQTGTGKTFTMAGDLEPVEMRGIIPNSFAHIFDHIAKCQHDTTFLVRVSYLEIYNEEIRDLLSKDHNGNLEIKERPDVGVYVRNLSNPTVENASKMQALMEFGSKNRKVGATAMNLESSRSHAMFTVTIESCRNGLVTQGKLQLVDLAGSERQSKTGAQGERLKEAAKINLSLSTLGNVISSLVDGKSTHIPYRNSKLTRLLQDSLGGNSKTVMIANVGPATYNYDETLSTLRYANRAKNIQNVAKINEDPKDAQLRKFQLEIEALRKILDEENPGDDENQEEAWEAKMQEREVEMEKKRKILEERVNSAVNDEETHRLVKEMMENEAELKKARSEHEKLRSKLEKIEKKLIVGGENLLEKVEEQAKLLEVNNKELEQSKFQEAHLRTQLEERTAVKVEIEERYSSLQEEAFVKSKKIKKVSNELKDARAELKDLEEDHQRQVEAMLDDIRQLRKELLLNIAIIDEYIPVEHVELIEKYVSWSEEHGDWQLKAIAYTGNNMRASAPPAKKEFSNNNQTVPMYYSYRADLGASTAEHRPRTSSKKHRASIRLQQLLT", "T1 sequence (G5EEE6 1-713 partner)": "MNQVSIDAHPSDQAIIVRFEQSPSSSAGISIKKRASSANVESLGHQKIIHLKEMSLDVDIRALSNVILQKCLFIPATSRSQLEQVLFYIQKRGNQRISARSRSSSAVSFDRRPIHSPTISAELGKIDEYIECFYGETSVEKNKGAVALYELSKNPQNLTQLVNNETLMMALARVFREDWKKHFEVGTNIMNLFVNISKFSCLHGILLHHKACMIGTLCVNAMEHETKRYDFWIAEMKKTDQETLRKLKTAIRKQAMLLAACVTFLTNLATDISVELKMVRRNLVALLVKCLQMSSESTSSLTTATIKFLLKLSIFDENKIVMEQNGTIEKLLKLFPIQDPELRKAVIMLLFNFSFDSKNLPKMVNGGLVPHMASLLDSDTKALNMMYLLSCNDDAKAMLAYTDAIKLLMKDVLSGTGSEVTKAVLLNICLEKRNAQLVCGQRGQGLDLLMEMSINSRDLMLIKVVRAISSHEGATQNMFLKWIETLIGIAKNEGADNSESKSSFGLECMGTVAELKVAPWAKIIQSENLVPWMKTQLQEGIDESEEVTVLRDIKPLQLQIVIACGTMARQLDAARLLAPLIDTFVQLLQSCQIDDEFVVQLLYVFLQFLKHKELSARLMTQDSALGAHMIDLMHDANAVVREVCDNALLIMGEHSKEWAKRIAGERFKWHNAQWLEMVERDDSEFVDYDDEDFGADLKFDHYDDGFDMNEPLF", "experiment": "microtubule gliding velocity assay", "format": "biochemical", "conditions": "read-out: Recombinant C. elegans kinesin-II; Mg-ATP; microtubules; 21°C", "data": [{"smiles": "Nc1ncnc2c1ncn2[C@@H]1O[C@H](COP(=O)(O)OP(=O)(O)OP(=O)(O)O)[C@@H](O)[C@H]1O", "note": "[Mg-ATP]", "values": [{"measurement": "Km", "result": "280 ± 50", "unit": "µM"}]}]}
